Test results taken from patent US20260206761A1, “HETEROARYL-TRIAZOLE COMPOUNDS AS PESTICIDES” (Bayer Aktiengesellschaft, priority 2019, published 2026).

Experiments:
Format in all cases: in vivo
[1] = system: Rhipicephalus microplus larvae (strain Parkhurst, resistant against synthetic pyrethroids); assay: Rhipicephalus (Boophilus) microplus in-vitro contact test, larval cattle tick; details: after 48 hours, read-out: activity (efficacy: larvae dead or moribund); for pest or weed control at 100 g/ha: application rate 1 pg/cm^2 (=100 g/ha); for pest or weed control at 500 g/ha: application rate 5 pg/cm^2 (=500 g/ha)
Outline: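 Acetone solutions coated onto inner walls of glass tubes by rotation (900 ppm giving 5 μg/cm^2); after evaporation, 20-50 larvae added per tube and held at 27° C., 85% relative humidity. Efficacy read after 48 h from negative geotactic behaviour; 100% = all larvae dead or moribund.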

[2] = system: adult engorged female ticks (Rhipicephalus microplus); assay: Rhipicephalus (Boophilus) microplus injection test; details: 168 h, egg deposition after 7 days, read-out: activity (efficacy: infertile eggs); for pest or weed control at 4 pg: application rate 4 pg/animal; for pest or weed control at 0.02 mg: application rate 20 μg/animal
Outline: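 Five adult engorged female ticks injected into the abdomen with 1 μL compound solution in DMSO, then held in a climate chamber. Fertile egg deposition assessed after 7 days, unclear eggs kept until hatching (about 42 days); efficacy 100% = all eggs infertile, 0% = all fertile.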

[3] = system: adult cat fleas (Ctenocephalides felis); assay: Ctenocephalides felis in-vitro contact test, adult cat flea; details: application rate 5 μg/cm^2 (=500 g/ha), after 48 hours, read-out: activity (efficacy: fleas dead or moribund)
Outline: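 Acetone solutions of compound coated onto inner walls of glass tubes (900 ppm giving […]); after drying, 5-10 adult Ctenocephalides felis added and held at room temperature. At 48 h, fleas placed on a 45-50° C heating plate; those unable to climb away scored dead or moribund, expressed as % efficacy.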

[4] = system: adult unfed cat fleas (Ctenocephalides felis); assay: Ctenocephalides felis oral test; details: 48 h, read-out: activity (mortality)
Outline: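 About 20 adult unfed fleas fed through parafilm on cattle blood containing compound (DMSO stock diluted in blood), blood held at 37 °C and fleas at room temperature. Mortality (%) scored after 2 days.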

[5] = system: green peach aphid (Myzus persicae); assay: Myzus persicae spray test; details: 120 h, after 5 days; for mortality at 100 g/ha: application rate 100 g/ha; for mortality at 500 g/ha: application rate 500 g/ha
Outline: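 Chinese cabbage leaf disks carrying all instars of M. persicae sprayed with compound in acetone/DMF, diluted in water with 1000 ppm alkylarylpolyglycol ether emulsifier. Percent mortality scored after 5 days (100% = all aphids killed).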

[6] = system: larvae of the southern green stink bug (Nezara viridula); assay: Nezara viridula spray test; details: 96 h, after 4 days; for mortality at 100 g/ha: application rate 100 g/ha; for mortality at 500 g/ha: application rate 500 g/ha
Outline: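 Compound in acetone/dimethylformamide, diluted in water with 1000 ppm alkylarylpolyglycol ether emulsifier, sprayed onto barley plants carrying stink bug larvae. Mortality (%) scored after 4 days, 100% meaning all insects killed.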

[7] = system: fall armyworm larvae (Spodoptera frugiperda); assay: Spodoptera frugiperda spray test; details: 168 h, read-out: activity (mortality)
Outline: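 Compound in acetone/DMF, diluted in water with 1000 ppm alkylarylpolyglycol ether emulsifier, sprayed on maize leaf sections. Dried leaves infested with fall armyworm larvae; % mortality after 7 days (100% = all killed, 0% = none).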

[8] = system: Aedes aegypti strain MONHEIM; assay: Aedes aegypti test (AEDSAE surface treatment & contact assay); details: 24 hours after contact, read-out: efficacy (mortality); for mortality at 4 mg/m2: surface concentration 4 mg/m^2, exposure 30 minutes; for mortality at 20 mg/m2: surface concentration 20 mg/m^2, exposure 30 minutes
Outline: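 Compound in acetone (2 mg/ml) with 2000 ppm RME pipetted onto glazed tile and dried; adult Aedes aegypti MONHEIM exposed 30 min. Percent mortality scored 24 h after contact.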

SMILES	pest or weed control at 100 g/ha [1] [%]	pest or weed control at 500 g/ha [1] [%]	pest or weed control at 4 pg [2] [%]	pest or weed control at 0.02 mg [2] [%]	pest or weed control at 5 µg/cm2 [3] [%]	mortality at 100 ppm [4] [%]	mortality at 100 g/ha [5] [%]	mortality at 500 g/ha [5] [%]	mortality at 100 g/ha [6] [%]	mortality at 500 g/ha [6] [%]	mortality at 100 g/ha [7] [%]	mortality at 500 g/ha [7] [%]	mortality at 4 mg/m2 [8] [%]	mortality at 20 mg/m2 [8] [%]
C[C@H](NC(=O)c1cc(Cl)cc(S(=O)(=O)C(F)F)c1)c1ncnn1-c1ncccn1 [II-34]	100	90	100	100	100	100	100	100	100	100	83	100	80 to 100	80 to 100
C[C@H](NC(=O)c1cc(Cl)cc(S(C)(=O)=O)c1)c1ncnn1-c1ncc(OC(F)F)cn1 [II-42]	100	100	100	100	100	100	90		100				80 to 100	80 to 100
Cc1nc([C@H](C)NC(=O)c2cc(Cl)cc(S(=O)(=O)C(F)F)c2)n(-c2ccc(Cl)cn2)n1 [II-36]	100	100	100	100	100	100		90	100	100	100	100	80 to 100	80 to 100
C[C@H](NC(=O)c1cc(C(F)(F)F)cc(C2(C#N)CC2)c1)c1ncnn1-c1ccc(Cl)cn1 [II-48]	100	100	100	100	90	100	100		100		100		80 to 100	80 to 100
CC(NC(=O)c1cc(C(F)(F)F)cc(S(C)(=O)=O)c1)c1nc(Cl)nn1-c1ncccn1 (stereo not shown) [I-30]	100	100	100	100	100	100	90		100				80 to 100	80 to 100
C[C@H](NC(=O)c1cc(C#N)cc(S(C)(=O)=O)c1)c1ncnn1-c1ccc(Cl)cn1 [II-29]	100	100	100	100	100	100	90	100	100	100	83	100	80 to 100	80 to 100
Cc1nc([C@H](C)NC(=O)c2cc(C(F)(F)F)cc(C3(C#N)CC3)c2)n(-c2ccc(C#N)cn2)n1 [II-49]	100	100	100	100	100	100	100		100		100		80 to 100	80 to 100
C[C@H](NC(=O)c1cc(C(F)(F)F)cc(C2(C#N)CC2)c1)c1ncnn1-c1ccc(C#N)cn1 [II-47]	100	100	100	100	100	100	100		100		100		80 to 100	80 to 100
Cc1nc([C@H](C)NC(=O)c2cc(Cl)cc(C3(C#N)CC3)c2)n(-c2ccc(C#N)cn2)n1 [II-38]	100	100	100	100	100	100	90				100		80 to 100	
C[C@H](NC(=O)c1cc(C#N)cc(C2CC2)c1)c1ncnn1-c1ncccn1 [II-54]	90	80			100	100	100		100		83		80 to 100	80 to 100
C[C@H](NC(=O)c1cc(Cl)cc(S(=O)(=O)C2CC2)c1)c1nc(C2CC2)nn1-c1ncc(Cl)cn1 [I-25]	100	100	100	100	100	100	100		100		100		80 to 100	80 to 100
C[C@H](NC(=O)c1cc(OC(F)(F)F)cc(C2CC2)c1)c1ncnn1-c1ccccn1 [II-22]	100	100	100	100	100	100		90		100	100	100	80 to 100	80 to 100
CSc1cc(C#N)cc(C(=O)N[C@@H](C)c2ncnn2-c2ccc(C#N)cn2)c1 [II-3]	90	90	100	100	100	100	100	100	100	100		100	80 to 100	80 to 100
Cc1nc([C@H](C)NC(=O)c2cc(Cl)cc(S(=O)(=O)C(F)F)c2)n(-c2ccc(C#N)cn2)n1 [II-35]	100	100	100	100	100	100	100	100	100	100			80 to 100	80 to 100
Cc1nc([C@H](C)NC(=O)c2cc(C(F)(F)F)cc(C3(C#N)CC3)c2)n(-c2ccc(Cl)cn2)n1 [II-50]	100	100	100	100	100	100	100		100		100		80 to 100	80 to 100
Cc1nc([C@H](C)NC(=O)c2cc(C(F)(F)F)cc(S(C)(=O)=O)c2)n(-c2ccc(C#N)cn2)n1 [II-52]	100	100	100		100	100	90		100		100		80 to 100	80 to 100
